Experimental findings from patent US8741967B2, “Use of unsaturated sphingosine compounds as chemotherapeutic agents for the treatment of cancer” (Children's Hospital & Research Center at Oakland, priority 2007, dated 2014) are described below.

Structures are written as SMILES. “Also recorded” adds a separate entry of the source.

For data set [1], the system named is HT29 cells. The data set is described as follows: Uptake and metabolism in HT29 colon cancer cells (LC-MS). In kind it is in vitro ADME, human. Conditions: HT29, 10 μM; for clearance / metabolism in cells after lipid removal: then incubated without lipids for up to 6 hours. Here is the method: In this example, the uptake and metabolism of C14 sphingadienes was compared with that of synthetic C17 sphingosine (as a substitute for endogenous C18 sphingosine which is already present in cells) and C14 sphingosine (to assess the importance of the second double bond) by HT29 colon cancer cells. Toward that end, cells were incubated with 10 μM sphingadiene in serum-free media, followed by cell harvest at various time points, lipid extraction and analysis by mass spectrometry of SD, SD-phosphate, C14 sphingosine and corresponding S1Ps.
HT29 cells were incubated for 0.25 hours, 0.5 hours and 1 hour in media containing 10 μM C14-So (Δ4) (sphingosine) or C14Δ4:6Sd (see FIG. 9A). HT29 cells were incubated for 1 hour in media containing 10 μM C14-So or C14Δ4:6Sd. Media was then removed and cells were incubated without lipids for 1, 3 and 6 hours (FIG. 9B). At each time point, cells were harvested, lipids were extracted and the cellular contents of C14-So or C14Δ4:6Sd and the corresponding phosphorylated compounds were analyzed by LC-MS.

Data set [2] has as its target T1, murine Sphingosine Kinase 1 (SK1) (Mus musculus, UniProt Q8CI15).
T1 construct: expressed in transfected cells; host or cells: HEK293
Nature of the data set: Phosphorylation by SK1 in extracts of HEK293 cells overexpressing SK1 (HPLC). Format: biochemical. To be noted: cell extracts preincubated for 10 minutes. As to the method:
The formed phosphorylated sphingoid base products were measured by HPLC.
In order to test if preincubation with C14-So or C14Δ4:6Sd has an inhibitory effect on the ability of the SK enzyme to phosphorylate the C17-So compound, cell extracts were preincubated for 10 minutes with either C14-So or C14Δ4:6Sd followed by C17-So.

Data set [3] deals with T2, human Sphingosine-1-Phosphate Lyase (SPL) (Homo sapiens, UniProt O95470).
T2 construct: expressed in transfected cells; host or cells: HEK 293
T2 sequence (O95470 1-568): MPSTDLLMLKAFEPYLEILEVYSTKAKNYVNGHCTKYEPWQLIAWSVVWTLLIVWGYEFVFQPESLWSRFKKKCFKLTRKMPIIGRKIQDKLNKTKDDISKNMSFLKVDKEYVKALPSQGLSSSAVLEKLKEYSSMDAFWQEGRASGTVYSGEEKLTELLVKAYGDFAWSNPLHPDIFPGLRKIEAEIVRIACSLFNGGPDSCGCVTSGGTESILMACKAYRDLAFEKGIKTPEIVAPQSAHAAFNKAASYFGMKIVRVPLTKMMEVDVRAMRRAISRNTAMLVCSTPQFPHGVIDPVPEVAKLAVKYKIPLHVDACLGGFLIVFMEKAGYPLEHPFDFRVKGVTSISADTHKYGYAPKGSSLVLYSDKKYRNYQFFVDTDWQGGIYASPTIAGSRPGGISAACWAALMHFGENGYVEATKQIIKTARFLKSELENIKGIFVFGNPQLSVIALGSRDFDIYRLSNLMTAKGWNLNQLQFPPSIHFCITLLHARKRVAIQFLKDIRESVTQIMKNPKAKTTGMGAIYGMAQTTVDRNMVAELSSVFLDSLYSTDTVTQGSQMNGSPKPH
Nature of the data set: Cleavage by SPL in HEK 293 cells overexpressing SPL. In kind it is biochemical.

In data set [4] the test system is HT29 cells. The data set is described as follows: Viability of HT29 colon cancer cells. Conditions: HT29, various concentrations, 24 hours. Format: cell-based, human. Here is the method:
The human colon cancer cell lines, HT29, SW480, HCT116 and DLD1 were treated with 10 μM C14Δ4:6Sd (also referred to herein as 2-aminotetradeca-4,6-diene-1,3-diol) and viability was determined at 24 hours.
HT29 cells were then incubated with various sphingadiene compounds and viability was determined at 24 hours.
HT29 cells were incubated with various concentrations of C14Δ4:6Sd and viability was determined at 24 hours or incubated with 10 μM C14Δ4:6Sd and viability was determined at various time points.
In a further experiment, HT29 cells were treated with the PI3K inhibitor wortmannin and various concentrations of C14Δ4:6Sd and viability was determined at 24 hours by MTT assay. The results confirmed synergistic inhibition of […] by C14Δ4:6Sd and wortmannin (see FIG. 8C).

Data set [5] deals with Akt. Nature of the data set: Akt phosphorylation by western blotting in HT29 cells. To be noted: HT29, 10 μM, 0.5 to 24 hours. Format: cell-based, human. As to the method: (§1) To address the possibility that sphingadienes might promote cell death by inhibiting the PI3K/AKT pathway, the effect of sphingadienes on phosphorylation of AKT, PTEN, and the AKT substrate 4EBP, which is a regulator of protein translation, was evaluated using immunoblotting of whole cell extracts.
(§2) HT29 cells were incubated with 10 μM C14Δ4:6Sd for 0.5, 1, 3, 6 and 24 hours and the level of Akt and 4EBP phosphorylation was evaluated at each time point by western blotting. […] The ratios of phosphorylated Akt to total Akt and of phosphorylated 4EBP to total 4EBP, were quantified by densitometry using ImageJ software (ImageJ is a public domain Java image processing program inspired by NIH Image; available at rsbweb.nih.gov/ij/index.html) and are shown in FIG. 7A and FIG. 7B, respectively.
(§3) In an additional experiment, HT29 cells were treated for various time periods with 10 μM C14Δ4:6Sd or C18Δ4:8Sd and the level of phosphorylation of Akt and 4EBP was evaluated by western blotting at 0.5, 1.0 and 3.0 hours. The results confirmed that sphingadienes inhibited phosphorylation of Akt and 4EBP, even at 0.5 hours of exposure, thus inhibiting signaling through Akt and 4EBP.

Data set [6] relates to 4EBP. Nature of the data set: 4EBP phosphorylation by western blotting in HT29 cells. In kind it is cell-based, human. To be noted: HT29, 10 μM, 0.5 to 24 hours. As to the method: as §1, §2, §3
For orientation: In western blotting, separated proteins are transferred to a membrane and probed.

T1 sequence (Q8CI15 whole entry): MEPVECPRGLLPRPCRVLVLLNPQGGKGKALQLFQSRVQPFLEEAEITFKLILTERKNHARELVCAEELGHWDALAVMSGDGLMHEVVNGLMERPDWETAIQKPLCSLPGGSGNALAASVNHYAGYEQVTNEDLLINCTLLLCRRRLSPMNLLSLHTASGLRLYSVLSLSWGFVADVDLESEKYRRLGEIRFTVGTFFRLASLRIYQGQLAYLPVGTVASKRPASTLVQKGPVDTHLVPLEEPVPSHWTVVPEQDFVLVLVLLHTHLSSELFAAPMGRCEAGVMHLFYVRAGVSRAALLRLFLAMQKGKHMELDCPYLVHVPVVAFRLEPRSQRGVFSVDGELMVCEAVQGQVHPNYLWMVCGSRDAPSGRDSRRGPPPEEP

As to `CCCCCCCCCCCCC/C=C/[C@@H](O)[C@@H](N)CO` [C14-So, reference compound], the “conversion to the phosphorylated compound in intact cells” value in data set [1] (LC-MS) is listed as “efficiently phosphorylated”. Besides, in data set [1] (not shown), the “uptake rate compared with long chain sphingosine” value is recorded as “faster”. The “uptake rate by cells” value in data set [1] (serum-free media) was “taken up at equal rates”. Besides, the “clearance / metabolism in cells after lipid removal” value in data set [1] is “completely metabolized”; in data set [1] (listed as C14 sphingosine), “cleared from the cells in hours; also recorded: rapidly metabolized”. Besides, in data set [2], the “inhibitory effect on phosphorylation of C17-So by SK” value is on record as “no inhibitory effect was observed”.
`CCCCCCCCCC=CC(O)C(N)COP(=O)(O)O` (stereo not drawn) [C14So-1P]: the “processing of C17So-1P following preincubation” value in data set [3] is on record as “No significant difference”.
Take `CCCCCC=CCCC=CC(O)C(N)CO` (stereo not drawn) [C14Δ4:8Sd]: the “cytotoxicity (viability)” value in data set [4] was “cytotoxic”.
Regarding `CCCCCCCCCCC/C=C/C=C/C(O)C(N)CO` (stereo not drawn) [C18Δ4:6Sd], in data set [4], the “cytotoxicity (viability)” value is “cytotoxic”.
Take `CCCCCCCCC/C=C/CC/C=C/C(O)C(N)CO` (stereo not drawn) [C18Δ4:8Sd]: the “cytotoxicity (viability)” value in data set [4] is given as “cytotoxic”. The “phosphorylation of Akt” value in data set [5] is “inhibited”. Moreover, the “phosphorylation of 4EBP” value in data set [6] is “inhibited”.
